Assay results from US7320979B2, “N-[(piperazinyl)hetaryl]arylsulfonamide compounds” (Abbott GmbH & Co. KG., priority 2003, dated 2008).

Experiments:
[1] = biological target: T1, human dopamine D3 receptors (Homo sapiens, UniProt P35462); test: Dopamine D3 receptor binding, displacement of [125I]-iodosulpride; settings: membranes of HEK-293 cells stably expressing human D3 receptors; 0.1 nM [125I]-iodosulpride; 25° C., 60 minutes
T1 construct: expressed in transfected cells; host or cells: HEK-293
Experimental: (§1) The substance to be tested was either dissolved in methanol/Chremophor® (BASF-AG) or in dimethyl sulfoxide and then diluted with water to the desired concentration.
(§2) Each assay mixture was run in triplicate.
The incubation buffer contained 50 mM tris, 120 mM NaCl, 5 mM KCl, 2 mM CaCl2, 2 mM MgCl2 and 0.1% bovine serum albumin, 10 μM […] and 0.1% ascorbic acid (prepared fresh daily). The buffer was adjusted to pH 7.4 with HCl.
(§3) After having been incubated at 25° C. for 60 minutes, the assay mixtures were filtered through a Whatman GF/B glass fiber filter under vacuum using a cell collecting device. The filters were transferred to scintillation viols using a filter transfer system. After 4 ml of Ultima Gold® (Packard) have been added, the samples were shaken for one hour and the radioactivity was then counted in a Beta-Counter (Packard, Tricarb 2000 or 2200CA). The cpm values were converted into dpm using a standard quench series and the program belonging to the instrument.
(§4) The inhibition curves were analyzed by means of iterative nonlinear regression analysis using the Statistical Analysis System (SAS) which is similar to the “LIGAND” program described by Munson and Rodbard.

[2] = biological target: T2, human dopamine D2L receptors (long isoform) (Homo sapiens, UniProt P14416); test: Dopamine D2L receptor binding, displacement of [125I] iodospiperone; settings: footnote: ratio of the Ki values of the D3 and D2L binding tests
T2 construct: expressed in transfected cells; host or cells: HEK-293
Experimental: as §1, §2
The incubation buffer contained 50 mM tris, 120 mM NaCl, 5 mM KCl, 2 mM CaCl2, 2 mM MgCl2 and 0.1% bovine serum albumin. The buffer was adjusted to pH 7.4 with HCl.
as §3, §4

T1 sequence (P35462 whole entry): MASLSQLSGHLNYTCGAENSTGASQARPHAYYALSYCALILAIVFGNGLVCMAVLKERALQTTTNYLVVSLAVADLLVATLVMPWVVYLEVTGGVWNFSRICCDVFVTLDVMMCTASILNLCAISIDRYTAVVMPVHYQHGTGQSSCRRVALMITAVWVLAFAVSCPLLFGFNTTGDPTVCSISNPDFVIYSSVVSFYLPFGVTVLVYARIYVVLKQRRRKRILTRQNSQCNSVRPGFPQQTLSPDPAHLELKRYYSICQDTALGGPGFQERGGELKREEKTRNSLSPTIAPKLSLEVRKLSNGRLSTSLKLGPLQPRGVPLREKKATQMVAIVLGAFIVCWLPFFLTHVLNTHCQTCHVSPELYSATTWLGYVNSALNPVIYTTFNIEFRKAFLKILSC
T2 sequence (P14416 whole entry, canonical isoform): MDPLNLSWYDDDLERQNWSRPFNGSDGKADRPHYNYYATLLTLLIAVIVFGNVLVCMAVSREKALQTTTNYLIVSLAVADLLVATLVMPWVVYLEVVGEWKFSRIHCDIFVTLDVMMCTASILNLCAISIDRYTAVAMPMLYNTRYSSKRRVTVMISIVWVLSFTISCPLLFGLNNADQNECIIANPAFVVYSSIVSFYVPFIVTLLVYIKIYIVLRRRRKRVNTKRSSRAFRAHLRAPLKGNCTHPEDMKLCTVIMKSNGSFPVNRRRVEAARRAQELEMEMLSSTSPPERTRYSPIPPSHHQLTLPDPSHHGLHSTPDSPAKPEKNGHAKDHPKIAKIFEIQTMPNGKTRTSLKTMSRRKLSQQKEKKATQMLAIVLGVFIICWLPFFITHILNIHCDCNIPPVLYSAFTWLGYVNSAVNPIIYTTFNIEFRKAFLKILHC

| SMILES | Ki [1] [nM] | Selectivity vs. D2L [2] |
| --- | --- | --- |
| C=CCN1CCN(c2ccc(NS(=O)(=O)c3ccc(CC)cc3)cn2)CC1.Cl [Example 5, N-[6-(4-Allylpiperazin-1-yl)pyridin-3-yl]-4-ethylbenzenesulfonamide hydrochloride] | 11.4 | 108 |
| C=CCN1CCN(c2ccc(NS(=O)(=O)c3ccc(C=C)cc3)cn2)CC1.Cl [Example 6, N-[6-(4-Allylpiperazin-1-yl)pyridin-3-yl]-4-vinylbenzenesulfonamide hydrochloride] | 9.7 | 169 |
| CC(C)c1ccc(S(=O)(=O)Nc2ccc(N3CCNCC3)nc2)cc1 [Example 7, 4-Isopropyl-N-(6-piperazin-1-ylpyridin-3-yl)benzenesulfonamide] | 11.4 | 68 |
| C=CCN1CCN(c2ccc(NS(=O)(=O)c3ccc(Br)cc3)cn2)CC1.Cl [Example 19, N-[2-(4-Allylpiperazin-1-yl)pyridin-5-yl]-4-bromobenzenesulfonamide hydrochloride] | 36.9 | 91 |
| CCCN1C(C)CN(c2ncccc2NS(=O)(=O)c2ccc(C(C)C)cc2)CC1C.O=C(O)C(F)(F)F (stereo not shown) [Example 22, 4-Isopropyl-N-[2-(3,5-dimethyl-4-propylpiperazin-1-yl)pyridin-3-yl]benzenesulfonamide trifluoroacetate] | 21.9 | 22 |
| C=CCN1C(C)CN(c2ccc(NS(=O)(=O)c3ccc(C(C)C)cc3)cn2)CC1C.Cl (stereo not shown) [Example 24, N-[6-(4-Allyl-3,5-dimethylpiperazin-1-yl)pyridin-3-yl]-4-isopropylbenzenesulfonamide hydrochloride] | 25 | 47 |
| CCCN1CCN(c2ccc(NS(=O)(=O)c3ccc(Br)cc3)cn2)CC1 [Example 27, 4-Bromo-N-[6-(4-propylpiperazin-1-yl)pyridin-3-yl]-benzenesulfonamide] | 21.4 | 55 |
| CCCN1CCN(c2ccc(NS(=O)(=O)c3ccc(Cl)cc3)cn2)CC1 [Example 28, 4-Chloro-N-[6-(4-propylpiperazin-1yl)pyridin-3-yl]-benzenesulfonamide] | 25.3 | 67 |
| CCCN1CC2CC1CN2c1ccc(NS(=O)(=O)c2ccc(C(C)C)cc2)cn1.Cl (stereo not shown) [Example 29, 4-Isopropyl-N-[6-(5-propyl-2,5-diazabicyclo[2.2.1]hept-2-yl)pyridin-3-yl]-benzenesulfonamide hydrochloride] | 16.9 | 31 |
| C=CCN1CC2CC1CN2c1ccc(NS(=O)(=O)c2ccc(C(C)C)cc2)cn1.Cl (stereo not shown) [Example 30, N-[6-(5-Allyl-2,5-diazabicyclo[2.2.1]hept-2-yl)pyridin-3-yl]-4-isopropylbenzenesulfonamide hydrochloride] | 11.1 | 17 |
| C=Cc1ccc(S(=O)(=O)Nc2ccc(N3CCN(CCC)CC3)nc2)cc1.Cl [Example 31, N-[6-(4-Propylpiperazin-1-yl)pyridin-3-yl]-4-vinylbenzenesulfonamide hydrochloride] | 14 | 96 |
| CC(C)c1ccc(S(=O)(=O)Nc2ccc(N3CCN(CCCF)CC3)nc2)cc1.Cl [Example 32, N-{6-[4-(3-Fluoropropyl)piperazin-1-yl]pyridin-3-yl}-4-isopropylbenzenesulfonamide hydrochloride] | 17 | 74 |
| C=CCN1CCN(c2ccc(NS(=O)(=O)c3ccc(Cl)cc3)cn2)CC1.Cl [Example 35, N-[6-(4-Allylpiperazin-1-yl)pyridin-3-yl]-4-chlorobenzenesulfonamide hydrochloride] | 26.6 | 51 |

Second part, the compound after the results:

| Ki [1] [nM] | Selectivity vs. D2L [2] | SMILES |
| --- | --- | --- |
| 3.6 | 131 | C=CCN1CCN(c2ccc(NS(=O)(=O)c3ccc(C(C)C)cc3)cn2)CC1C.Cl (racemic) [Example 13, N-[6-(4-Allyl-3-methylpiperazin-1-yl)pyridin-3-yl]-4-isopropylbenzenesulfonamide hydrochloride] |
| 2.5 | 81 | CCCN1CCN(c2ccc(NS(=O)(=O)c3ccc(C(C)C)cc3)cn2)CC1C.Cl (racemic) [Example 14, 4-Isopropyl-N-[6-(3-methyl-4-propylpiperazin-1-yl)pyridin-3-yl]benzenesulfonamide hydrochloride] |
| 3 | 232 | C=CCN1CCN(c2ccc(NS(=O)(=O)c3ccc(C(C)C)cc3)cn2)CC1 [Example 1, N-[6-(4-Allylpiperazin-1-yl)pyridin-3-yl]-4-isopropylbenzenesulfonamide] |
| 5.5 | 25 | C=CCN1CCN(c2ccc(NS(=O)(=O)c3ccc(CCC)cc3)cn2)CC1 [Example 2, N-[6-(4-Allylpiperazin-1-yl)pyridin-3-yl]-4-propylbenzenesulfonamide] |
| 5.9 | 15 | C=CCN1CCN(c2ccc(NS(=O)(=O)c3ccc(CCCC)cc3)cn2)CC1 [Example 3, N-[6-(4-Allylpiperazin-1-yl)pyridin-3-yl]-4-butylbenzenesulfonamide] |
| 7.5 | 93 | CC(C)c1ccc(S(=O)(=O)Nc2ccc(N3CCN(C)CC3)nc2)cc1 [Example 10, 4-Isopropyl-N-[6-(4-methylpiperazin-1-yl)pyridin-3-yl]benzenesulfonamide] |
| 6.2 | 77 | CCN1CCN(c2ccc(NS(=O)(=O)c3ccc(C(C)C)cc3)cn2)CC1.Cl [Example 11, N-[6-(4-Ethylpiperazin-1-yl)pyridin-3-yl]-4-isopropylbenzenesulfonamide hydrochloride] |
| 2.7 | 96 | C=CCN1CCN(c2ccc(NS(=O)(=O)c3ccc(C(C)C)cc3)cn2)C[C@@H]1C [Example 13a, N-{6-[4-Allyl-(3S)-methylpiperazin-1-yl]pyridin-3-yl}-4-isopropylbenzenesulfonamide] |
| 1.5 | 184 | CCCN1CCN(c2ccc(NS(=O)(=O)c3ccc(C(C)C)cc3)cn2)C[C@@H]1C [Example 14a, 4-Isopropyl-N-{6-[(3S)-methyl-4-propylpiperazin-1-yl]pyridin-3-yl}benzenesulfonamide] |
| 3.8 | 131 | C=CCN1CCN(c2ncc(NS(=O)(=O)c3ccc(C(C)C)cc3)cn2)CC1 [Example 16, N-[2-(4-Allylpiperazin-1-yl)pyrimidin-5-yl]-4-isopropylbenzenesulfonamide] |
| 8.2 | 148 | CCCN1CCN(c2ncc(NS(=O)(=O)c3ccc(C(C)C)cc3)cn2)CC1.Cl [Example 17, 4-Isopropyl-N-[2-(4-propylpiperazin-1-yl)pyrimidin-5-yl]benzenesulfonamide hydrochloride] |
| 9.6 | 73 | CCCN1CCN(c2ccc(NS(=O)(=O)c3ccc(CC)cc3)cn2)CC1.Cl [Example 34, 4-Ethyl-N-[6-(4-propylpiperazin-1-yl)pyridin-3-yl]-benzenesulfonamide hydrochloride] |
| 5.4 | 50 | Cc1cc(N2CCNCC2)ncc1NS(=O)(=O)c1ccc(C(C)C)cc1.Cl [Example 36, 4-Isopropyl-N-(4-methyl-6-piperazin-1-ylpyridin-3-yl)-benzenesulfonamide hydrochloride] |
